{
  "source": "ChEMBL document CHEMBL1201862",
  "about": "“PubChem BioAssay data set” (2004)",
  "key": {"[1]": {"biological_target": "Cytochrome P450 2C9 (Homo sapiens, UniProt P11712)", "sequence (P11712 whole entry)": "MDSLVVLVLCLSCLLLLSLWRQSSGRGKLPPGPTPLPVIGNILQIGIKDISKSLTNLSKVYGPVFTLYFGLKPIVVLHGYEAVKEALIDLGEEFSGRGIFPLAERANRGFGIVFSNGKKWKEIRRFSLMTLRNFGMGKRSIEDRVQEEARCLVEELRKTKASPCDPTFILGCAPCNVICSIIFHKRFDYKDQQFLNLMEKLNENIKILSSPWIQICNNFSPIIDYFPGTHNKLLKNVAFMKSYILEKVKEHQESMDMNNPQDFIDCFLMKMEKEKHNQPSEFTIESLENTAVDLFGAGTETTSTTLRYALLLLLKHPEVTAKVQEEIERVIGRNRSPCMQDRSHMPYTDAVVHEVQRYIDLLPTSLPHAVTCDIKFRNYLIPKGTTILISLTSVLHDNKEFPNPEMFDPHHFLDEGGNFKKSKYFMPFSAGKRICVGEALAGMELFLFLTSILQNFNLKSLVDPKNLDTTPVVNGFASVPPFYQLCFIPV"}, "[2]": {"biological_target": "Cytochrome P450 2D6 (Homo sapiens, UniProt P10635)", "sequence (P10635 whole entry)": "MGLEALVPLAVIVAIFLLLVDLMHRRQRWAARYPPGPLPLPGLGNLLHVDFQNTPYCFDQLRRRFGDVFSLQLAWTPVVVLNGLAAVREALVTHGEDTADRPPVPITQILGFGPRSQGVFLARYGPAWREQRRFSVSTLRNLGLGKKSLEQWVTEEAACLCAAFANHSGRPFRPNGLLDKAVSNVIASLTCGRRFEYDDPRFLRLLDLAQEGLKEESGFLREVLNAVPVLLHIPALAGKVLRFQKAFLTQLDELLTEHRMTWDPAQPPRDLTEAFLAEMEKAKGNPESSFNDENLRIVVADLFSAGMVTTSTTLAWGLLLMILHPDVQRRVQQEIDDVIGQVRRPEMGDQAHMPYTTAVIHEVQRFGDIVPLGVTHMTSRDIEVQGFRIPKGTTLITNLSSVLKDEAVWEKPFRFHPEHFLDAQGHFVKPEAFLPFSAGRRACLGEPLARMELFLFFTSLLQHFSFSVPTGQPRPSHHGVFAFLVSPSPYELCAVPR"}, "[3]": {"assay": "Luminescence Cell-Based Dose Response HTS to Identify Inhibitors of 5'UTR Stem-Loop Driven Prion Protein mRNA Translation in H4 Neuroglioblastoma Cells. [Related pubchem assays: 1827 (Project Summary), 1813 (Primary HTS)]", "type": "functional"}, "[4]": {"assay": "inhibitors of SNCA 5'UTR-driven reporter translation, confirmation, H4 neuroglioma cells, luminescence (AID 1988)", "type": "functional, cell-based"}, "[5]": {"assay": "inhibitors of firefly luciferase expression or activity, dose response, H4 neuroglioma cells, luminescence (AID 1990)", "type": "functional, cell-based"}, "[6]": {"biological_target": "T1, Heat shock factor protein 1 (Mus musculus, UniProt P38532)", "T1 sequence (P38532 whole entry)": "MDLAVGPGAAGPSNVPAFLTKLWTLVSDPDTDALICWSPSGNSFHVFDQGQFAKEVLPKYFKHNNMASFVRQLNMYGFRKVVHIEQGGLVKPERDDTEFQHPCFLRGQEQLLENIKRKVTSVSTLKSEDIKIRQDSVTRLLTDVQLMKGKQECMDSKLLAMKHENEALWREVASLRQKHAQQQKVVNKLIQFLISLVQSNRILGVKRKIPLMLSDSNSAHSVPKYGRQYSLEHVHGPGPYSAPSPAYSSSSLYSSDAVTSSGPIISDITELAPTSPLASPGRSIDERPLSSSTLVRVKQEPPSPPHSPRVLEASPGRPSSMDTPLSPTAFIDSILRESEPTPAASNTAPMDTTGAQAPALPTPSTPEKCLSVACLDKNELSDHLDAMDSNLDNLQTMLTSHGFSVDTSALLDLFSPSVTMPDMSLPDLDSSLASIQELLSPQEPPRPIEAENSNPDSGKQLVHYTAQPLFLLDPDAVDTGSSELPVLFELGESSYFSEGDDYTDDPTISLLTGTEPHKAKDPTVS", "assay": "inhibition of MG132-induced HSE-luciferase signal, confirmation, cell-based, NIH3T3, luminescence, dose retest (AID 2382);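 also: NIH3T3 fibroblasts with HSF1-driven luciferase reporter stressed by proteasome inhibitor MG132; luminescence from HSF1-driven luciferase expression after 8 hours of MG132 stress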", "type": "functional"}, "[7]": {"biological_target": "Cytochrome P450 2C19 (Homo sapiens, UniProt P33261)", "sequence (P33261 whole entry)": "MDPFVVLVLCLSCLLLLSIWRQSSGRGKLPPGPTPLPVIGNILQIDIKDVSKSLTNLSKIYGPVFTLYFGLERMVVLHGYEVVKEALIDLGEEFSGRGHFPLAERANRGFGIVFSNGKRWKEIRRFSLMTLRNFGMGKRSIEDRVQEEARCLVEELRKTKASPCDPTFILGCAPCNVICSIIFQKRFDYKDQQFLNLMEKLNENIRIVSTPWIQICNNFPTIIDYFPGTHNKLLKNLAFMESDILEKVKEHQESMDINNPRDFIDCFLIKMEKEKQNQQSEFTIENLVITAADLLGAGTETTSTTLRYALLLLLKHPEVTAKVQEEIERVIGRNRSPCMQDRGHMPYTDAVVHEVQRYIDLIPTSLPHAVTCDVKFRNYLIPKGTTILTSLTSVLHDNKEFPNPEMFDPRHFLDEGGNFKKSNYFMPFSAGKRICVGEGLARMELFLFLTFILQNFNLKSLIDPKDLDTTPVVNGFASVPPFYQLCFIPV", "assay": "Cytochrome panel assay with activity outcomes. Panel member name: p450-cyp2c19 Compounds with AC50 equal or less than 10 uM are considered active", "type": "functional", "conditions": "read-out: AC50"}, "[8]": {"biological_target": "T2, Corticotropin-releasing factor receptor 2/Corticotropin-releasing factor-binding protein (Homo sapiens, UniProt P24387+Q13324)", "T2 sequence (Q13324 whole entry)": "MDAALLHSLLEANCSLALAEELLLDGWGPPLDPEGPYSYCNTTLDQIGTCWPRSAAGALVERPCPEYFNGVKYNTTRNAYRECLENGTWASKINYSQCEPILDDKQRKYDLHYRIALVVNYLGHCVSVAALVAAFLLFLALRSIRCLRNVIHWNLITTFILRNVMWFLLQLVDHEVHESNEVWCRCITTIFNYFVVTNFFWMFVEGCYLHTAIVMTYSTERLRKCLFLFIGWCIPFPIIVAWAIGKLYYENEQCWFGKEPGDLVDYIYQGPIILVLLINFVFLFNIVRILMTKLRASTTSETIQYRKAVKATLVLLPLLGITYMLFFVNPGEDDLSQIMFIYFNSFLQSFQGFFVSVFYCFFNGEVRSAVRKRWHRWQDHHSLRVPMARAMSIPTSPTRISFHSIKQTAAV", "T2 sequence (P24387 whole entry)": "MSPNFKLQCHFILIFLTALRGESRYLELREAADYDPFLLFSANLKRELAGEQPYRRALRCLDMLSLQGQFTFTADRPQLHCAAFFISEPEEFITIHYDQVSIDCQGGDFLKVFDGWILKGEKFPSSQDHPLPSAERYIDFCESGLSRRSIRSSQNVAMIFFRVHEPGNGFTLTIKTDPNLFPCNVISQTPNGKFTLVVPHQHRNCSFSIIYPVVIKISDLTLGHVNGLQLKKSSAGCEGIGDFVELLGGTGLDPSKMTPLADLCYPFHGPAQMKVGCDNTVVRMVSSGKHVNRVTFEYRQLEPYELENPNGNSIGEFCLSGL", "assay": "activators of CRF receptor 2 with binding protein – uHTS hits, confirmation (AID 602473)", "type": "functional", "conditions": "read-out: EC50_Mean"}, "[9]": {"biological_target": "T2, Corticotropin-releasing factor receptor 2/Corticotropin-releasing factor-binding protein", "assay": "Dose Response confirmation of uHTS hits for small molecule antagonists of the CRF-binding protein and CRF-R2 receptor complex.", "type": "functional", "conditions": "read-out: IC50_Mean"}},
  "note": "Active and inactive are the calls of the source.",
  "data": [
    {"smiles": "FC(F)(F)c1cc(Sc2ccccc2)nc(-c2ccccn2)n1", "values": [
      {"measurement": "AC50", "setting": "[1]", "result": "14.1 µM (inconclusive)"},
      {"measurement": "AC50", "setting": "[2]", "result": "11.2 µM (inconclusive)"}
    ]},
    {"smiles": "CC(C)Cc1nc2n[nH]c(N)c2c2c1COC(C)(C)C2", "values": [
      {"measurement": "EC50", "setting": "[3]", "result": "> 120 µM (not active)"},
      {"measurement": "EC50", "setting": "[4]", "result": "21.4 µM (active)"},
      {"measurement": "EC50", "setting": "[5]", "result": "38.2 µM (active)"}
    ]},
    {"smiles": "COc1cccc(COC(=O)c2ccc3c(c2)NC(=O)C(C)S3)c1OC", "note": "(stereo unspecified)", "values": [
      {"measurement": "EC50", "setting": "[6]", "result": "> 195 µM (not active)"}
    ]},
    {"smiles": "CC(=O)Nc1nonc1NC(=O)c1ccc(C(C)(C)C)cc1", "values": [
      {"measurement": "AC50", "setting": "[1]", "result": "3.55 µM (inconclusive)"},
      {"measurement": "AC50", "setting": "[7]", "result": "3.55 µM (inconclusive)"}
    ]},
    {"smiles": "COc1ccc(-c2[nH]ncc2CN2CCC(O)(c3ccc(Cl)cc3)CC2)cc1", "values": [
      {"measurement": "EC50", "setting": "[4]", "result": "9.96 µM (active)"},
      {"measurement": "EC50", "setting": "[5]", "result": "18.2 µM (active)"}
    ]},
    {"smiles": "CCCn1c(C(C)NS(=O)(=O)c2ccccc2)n[nH]c1=S", "note": "(stereo unspecified)", "values": [
      {"measurement": "EC50", "setting": "[8]", "result": "> 53 µM (inactive)"},
      {"measurement": "IC50", "setting": "[9]", "result": "> 47.1 µM (inactive)"}
    ]},
    {"smiles": "C=Cn1cc[n+](CC(=O)c2ccc(Cl)cc2)c1", "values": [
      {"measurement": "EC50", "setting": "[8]", "result": "> 53 µM (inactive)"},
      {"measurement": "IC50", "setting": "[9]", "result": "> 47.1 µM (inactive)"}
    ]},
    {"smiles": "CC(C)(C)OC(=O)COc1cc(O)c2c(=O)cc(-c3ccccc3)oc2c1", "values": [
      {"measurement": "EC50", "setting": "[6]", "result": "> 195 µM (not active)"}
    ]},
    {"smiles": "Nc1nc(O)c(Br)c(Oc2ccc(F)cc2)n1", "values": [
      {"measurement": "EC50", "setting": "[6]", "result": "35.4 µM (active)"}
    ]},
    {"smiles": "C1=C(c2cccc3ccccc23)N2CCN=C2S1", "values": [
      {"measurement": "EC50", "setting": "[3]", "result": "> 120 µM (not active)"},
      {"measurement": "EC50", "setting": "[4]", "result": "> 120 µM (not active)"},
      {"measurement": "EC50", "setting": "[5]", "result": "> 120 µM (not active)"}
    ]},
    {"smiles": "CC(C)[C@H](CO)Nc1nc(Nc2cccc(Cl)c2)c2ncn(C(C)C)c2n1", "note": "[PURVALANOLA]", "values": [
      {"measurement": "AC50", "setting": "[1]", "result": "39.8 µM (inconclusive)"}
    ]},
    {"smiles": "O=C(N/N=C/c1cc([N+](=O)[O-])ccc1Cl)c1cnccn1", "values": [
      {"measurement": "EC50", "setting": "[3]", "result": "9.8 µM (active)"},
      {"measurement": "EC50", "setting": "[4]", "result": "> 120 µM (not active)"},
      {"measurement": "EC50", "setting": "[5]", "result": "> 120 µM (not active)"}
    ]},
    {"smiles": "O=c1[nH][nH]c(=S)c(=O)[nH]1", "values": [
      {"measurement": "AC50", "setting": "[1]", "result": "2.51 µM (inconclusive)"},
      {"measurement": "AC50", "setting": "[7]", "result": "2 µM (inconclusive)"}
    ]},
    {"smiles": "O=C1OC(N2CCN(C/C=C/c3ccccc3)CC2)c2ccccc21", "note": "(stereo unspecified)", "values": [
      {"measurement": "EC50", "setting": "[6]", "result": "> 195 µM (not active)"}
    ]},
    {"smiles": "COc1ccc(NC(=O)CSc2nc(C)cs2)cc1", "values": [
      {"measurement": "EC50", "setting": "[6]", "result": "> 195 µM (not active)"}
    ]},
    {"smiles": "CCn1c(C(=O)NC(C)c2ccc3c(c2)OCCO3)cc2sccc21", "note": "(stereo unspecified)", "values": [
      {"measurement": "EC50", "setting": "[3]", "result": "15.8 µM (active)"},
      {"measurement": "EC50", "setting": "[4]", "result": "22.5 µM (active)"},
      {"measurement": "EC50", "setting": "[5]", "result": "14.2 µM (active)"}
    ]},
    {"smiles": "O=S(=O)(c1ccc2c(c1)OCCO2)N1CCC(c2nc(O)c3nnn(Cc4ccccc4F)c3n2)CC1", "values": [
      {"measurement": "EC50", "setting": "[3]", "result": "> 120 µM (not active)"},
      {"measurement": "EC50", "setting": "[4]", "result": "> 120 µM (not active)"},
      {"measurement": "EC50", "setting": "[5]", "result": "> 120 µM (not active)"}
    ]},
    {"smiles": "O=C(c1nc2nc(-c3ccc(Cl)cc3)cc(C(F)(F)F)n2n1)N1CCOCC1", "values": [
      {"measurement": "EC50", "setting": "[3]", "result": "54.3 µM (active)"},
      {"measurement": "EC50", "setting": "[4]", "result": "15.9 µM (active)"},
      {"measurement": "EC50", "setting": "[5]", "result": "14 µM (active)"}
    ]},
    {"smiles": "O=C(N/N=C/c1cccnc1)c1ccc2c(c1)OCCO2", "values": [
      {"measurement": "EC50", "setting": "[6]", "result": "> 195 µM (not active)"}
    ]},
    {"smiles": "O=C(CSCC(=O)Nc1cccc([N+](=O)[O-])c1)Nc1ccccc1", "values": [
      {"measurement": "EC50", "setting": "[8]", "result": "> 53 µM (inactive)"},
      {"measurement": "IC50", "setting": "[9]", "result": "> 47.1 µM (inactive)"}
    ]},
    {"smiles": "Cc1ccc2c(COC(=O)C3=COCCO3)cc(=O)oc2c1", "values": [
      {"measurement": "EC50", "setting": "[3]", "result": "10.5 µM (active)"},
      {"measurement": "EC50", "setting": "[4]", "result": "8.1 µM (inconclusive)"}
    ]},
    {"smiles": "COc1ccc(-n2nc(C(=O)NCC(=O)Nc3ccccn3)c3ccccc3c2=O)cc1", "values": [
      {"measurement": "AC50", "setting": "[1]", "result": "1.41 µM (inconclusive)"},
      {"measurement": "AC50", "setting": "[7]", "result": "3.16 µM (inconclusive)"}
    ]},
    {"smiles": "Oc1ccc2ccccc2c1CN(Cc1c(O)ccc2ccccc12)C1CCCCC1", "values": [
      {"measurement": "AC50", "setting": "[1]", "result": "7.94 µM (inconclusive)"}
    ]},
    {"smiles": "C=C(C)Cn1c(=O)c2c(nc3n2CC(C)CN3Cc2ccccc2)n(C)c1=O", "note": "(stereo unspecified)", "values": [
      {"measurement": "EC50", "setting": "[8]", "result": "> 53 µM (inactive)"},
      {"measurement": "IC50", "setting": "[9]", "result": "> 47.1 µM (inactive)"}
    ]}
  ]
}
